Laboratory results taken from article PMC3574224, “Na^+ Regulation in the Malaria Parasite Plasmodiumfalciparum Involves the Cation ATPase PfATP4 and Is a Target of the Spiroindolone Antimalarials” (Cell Host & Microbe, 2013).

What was measured:
[1] = tested on: P. falciparum trophozoites; experiment: Cytosolic [Ca^2+]i in fura-2-loaded saponin-isolated parasites; format: cell-based, Plasmodium falciparum; details: 50 nM; medium containing 1 μM Ca^2+
Experimental: [Ca^2+]i was measured with the Ca^2+-sensitive indicator fura-2 (Molecular Probes, Invitrogen) using a loading protocol identical to that described for SBFI. Calibration was performed as described previously ([Alleva and Kirk, 2001]).

[2] = tested on: P. falciparum Dd2 parent; experiment: Parasite proliferation, [^3H]hypoxanthine incorporation, Dd2 parent; format: cell-based; details: Plasmodium falciparum, DD2, read-out: IC50 for inhibition of parasite proliferation by NITD246
Experimental: Parasite growth assays were performed in 96-well plates over 48 hr (commencing at the ring stage) using a standard [^3H]hypoxanthine incorporation assay ([Desjardins et al., 1979]).
Dose-response curves were obtained using the expression y = y^min + y^max/(1 + [C/IC50]^b), where y is the parameter being measured (parasite proliferation, Na^+ influx, or ATPase activity), y^min is the minimum value of y, y^max is the maximum value of y, C is the concentration of the moiety that was varied in the experiment, IC50 is the concentration at which y was reduced to 50% of y^max, and b is a fitted constant.

[3] = target: T1, membrane-associated ATPase activity, Dd2^attB CAM I398F/P990R (mutant PfATP4 transfectant) (Plasmodium falciparum, UniProt A0A143ZZK9, I398F/P990R); experiment: Membrane-associated ATPase activity, Dd2^attB CAM I398F/P990R; format: biochemical; details: concentration causing Pi production rate to decrease by half the maximal amount, read-out: IC50 for disruption of ATPase activity by NITD246
T1 sequence (A0A143ZZK9 1-1264 I398F/P990R): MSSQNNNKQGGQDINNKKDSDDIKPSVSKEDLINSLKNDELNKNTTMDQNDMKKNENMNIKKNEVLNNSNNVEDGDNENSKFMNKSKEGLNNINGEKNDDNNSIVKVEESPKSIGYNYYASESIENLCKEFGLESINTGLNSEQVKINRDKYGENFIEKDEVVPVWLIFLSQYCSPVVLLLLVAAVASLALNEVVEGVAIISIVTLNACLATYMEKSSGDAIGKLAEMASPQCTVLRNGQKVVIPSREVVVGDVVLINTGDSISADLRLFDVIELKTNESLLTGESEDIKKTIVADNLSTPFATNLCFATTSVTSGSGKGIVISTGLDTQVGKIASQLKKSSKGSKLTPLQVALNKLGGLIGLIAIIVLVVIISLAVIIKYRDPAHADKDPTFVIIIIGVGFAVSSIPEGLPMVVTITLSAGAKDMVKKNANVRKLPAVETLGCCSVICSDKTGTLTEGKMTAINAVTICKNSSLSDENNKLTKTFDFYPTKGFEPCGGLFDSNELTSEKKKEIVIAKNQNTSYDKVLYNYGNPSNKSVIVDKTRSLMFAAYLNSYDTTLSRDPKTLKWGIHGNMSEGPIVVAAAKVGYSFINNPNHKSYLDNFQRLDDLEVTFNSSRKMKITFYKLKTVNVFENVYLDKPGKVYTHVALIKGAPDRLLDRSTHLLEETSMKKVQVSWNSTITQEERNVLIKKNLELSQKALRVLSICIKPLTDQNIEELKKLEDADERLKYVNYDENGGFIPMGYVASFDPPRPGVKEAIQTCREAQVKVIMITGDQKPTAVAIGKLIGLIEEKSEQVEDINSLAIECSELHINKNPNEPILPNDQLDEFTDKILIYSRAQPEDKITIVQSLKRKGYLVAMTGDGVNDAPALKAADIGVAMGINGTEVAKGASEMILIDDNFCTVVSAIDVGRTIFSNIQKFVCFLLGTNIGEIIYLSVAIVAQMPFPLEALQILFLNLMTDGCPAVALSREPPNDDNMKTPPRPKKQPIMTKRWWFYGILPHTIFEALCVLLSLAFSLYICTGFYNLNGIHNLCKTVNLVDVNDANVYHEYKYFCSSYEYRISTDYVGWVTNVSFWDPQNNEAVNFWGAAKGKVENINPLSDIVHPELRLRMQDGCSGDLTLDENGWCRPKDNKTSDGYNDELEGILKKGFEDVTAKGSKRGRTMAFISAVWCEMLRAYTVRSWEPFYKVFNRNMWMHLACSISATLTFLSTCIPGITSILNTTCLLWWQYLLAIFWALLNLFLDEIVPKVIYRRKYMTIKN
Experimental: For the preparation of uninfected erythrocyte membranes, packed uninfected erythrocytes were lysed by incubation for 5 min in ice-cold PBS containing 0.1% (w/v) saponin together with 1/500 Protease Inhibitor Cocktail Set III (Calbiochem). The erythrocyte ghosts were pelleted by centrifugation (12,000 × g, 10 min) and washed three times in ice-cold water (12,000 × g, 10 min) immediately prior to their use in the ATPase assay. To prepare membranes from parasitised erythrocytes, saponin-isolated parasites were lysed by suspension in ice-cold water (containing 1/500 Protease Inhibitor Cocktail Set III) then washed three times in ice-cold water (12,000 × g, 10 min) before their immediate use in the ATPase assay. The ATPase activity of membrane preparations from uninfected erythrocytes and saponin-isolated parasites was estimated from the rate of hydrolysis of ATP and measured using the PiColorLock Gold Phosphate (Pi) Detection System (Innova Biosciences). Briefly, membrane preparations from 1–3 × 10^8 cells were suspended in reaction buffer (100 mM of either NaCl or choline chloride, 50 mM Tris-HCl, 20 mM KCl, and 2 mM MgCl2) at 37°C. The ATPase reaction was initiated by the addition of 0.25 mM Na2ATP. Note that it was necessary to use the Na^+ salt of ATP, rather than the K^+ and Mg^2+ salts, as the latter both contain residual Pi that saturated the Pi detection system. […]

`C[C@H]1Cc2c([nH]c3cc(F)c(F)cc23)[C@@]2(N1)C(=O)Nc1ccc(Cl)cc12` [NITD246] was tested, and the “Effect on [Ca^2+]i” value [1] was “no effect”, the IC50 [2] was 0.08 ± 0.01 nM and the IC50 [3] was 0.17 ± 0.12 nM.
